Publication PMC8201324, “Pyrazoles and Pyrazolines as Anti-Inflammatory Agents” (Molecules, 2021)
Entries after “also recorded” stand apart in the source; their conditions may differ. Marks after values point to notes of the source that are not given here.

Columns and labels:
[1] = Inhibition of linoleic acid lipid peroxidation (AAPH); assay type: biochemical
Procedure: For the lipid peroxidation study, 2,2′-azobis(2-amidinopropane) hydrochloride (AAPH) was used for the generation of peroxyl radicals. The generation of the conjugated diene hydroperoxide derived from the oxidation of sodium linoleate in an aqueous solution was recorded at 234 nm. The compounds presented high anti-lipid peroxidation activity (78–100%) (Table 4). Pyrazolines 2a and 2b present lower anti-lipid peroxidation activity (89% and 78% respectively).
A stock solution (1% DMSO in the appropriate buffer with the tested compound diluted under sonication) was prepared for the in vitro assays from which several dilutions were made with the appropriate buffer. The in vitro experiments were performed at least in triplicate, and the standard deviation of absorbance was less than 10% of the mean.
AAPH was used as free radical initiator of alkylperoxyl radicals. The ability of the compounds to prevent the oxidation of linoleic acid sodium salt from alkylperoxyl radicals was recorded at 234 nm. Trolox was used as reference (93%) (Table 4).

[2] = system: carrageenin-induced rat paw edema; assay: Inhibition of the carrageenin-induced rat paw edema; assay type: in vivo, Fisher 344 rats; settings: for CPE % (reduction in the rat paw edema induced by carrageenin): 0.0057 mmol/Kg body weight, intraperitoneally, 3.5 h after carrageenin; for anti-inflammatory activity in carrageenin-induced rat paw edema (in words): intraperitoneal administration
Description: The carrageenin-induced rat paw edema assay was used, as a model of acute inflammation. Inflammation induced by carrageenan is acute, non-immune, well-researched, and highly reproducible, and is described as a biphasic event. Cardinal signs of inflammation—edema, hyperalgesia, and erythema, are developed immediately following subcutaneous injection, resulting from the action of pro-inflammatory agents: bradykinin, histamine, tachykinins, complement reactive oxygen and nitrogen species. It is known that NSAIDs act during the second phase of prostaglandin release, presenting weak activity in the first phase of histamine and serotonin release.
(§1) The animals (Fisher 344 rats), were housed under standard conditions, and received a diet of commercial food pellets and water ad libitum during the maintenance, but were entirely fasted during the experiment period. Both sexes were used, while pregnant females were excluded. Each group was composed of 6–15 animals. Our studies were in accordance with recognized guidelines on animal experimentation (guidelines for the care and use of laboratory animals published by the Greek Government 160/1991, based on EU regulations 86/609). Rats were kept in the Centre of the School of Veterinary Medicine (EL54 BIO42), Aristotle University of Thessaloniki, which is registered by the official state veterinary authorities (presidential degree 56/2013, in harmony with the European Directive 2010/63/EEC). The experimental protocols were approved by the Animal Ethics Committee of the Prefecture of Central Macedonia.
Carrageenin in water as an intradermal injection of 0.1 mL 2% was used for the induction of the edema in the right hind paw of the rats, according to the previously reported method. Animals were divided in five-membered groups and the tested compounds were suspended in water (0.0057 mmol/kg body weight), with a few drops of Tween 80, ground in a mortar before administered intraperitoneally simultaneously. The rats were euthanized 3.5 h after carrageenin injection. Comparison of the change in paw weight with that in control animals (treated with water) was expressed as a percent inhibition of the oedema CPE% values using indomethacin (IMA) as a reference compound. Values CPE% are the mean from two different experiments with a standard error of the mean less than 10% (Table 5). Student’s T test was applied.

[3] = system: acetic acid-induced writhing; assay: Anti-nociception writhing test (acetic acid); assay type: in vivo, Fisher 344 rats; settings: 0.0057 mmol/kg body weight i.p., 0.6% acetic acid after 30 min
Description: The acetic acid-induced writhing test is a quick, simple and reproducible method, despite the fact that it lacks specialization. […] The animals (Fisher 344 rats), were housed under standard conditions, and received a diet of commercial food pellets and water ad libitum during the maintenance, but were entirely fasted during the experiment period. Both sexes were used, while pregnant females were excluded. Each group was composed of 6–15 animals. Our studies were in accordance with recognized guidelines on animal experimentation (guidelines for the care and use of laboratory animals published by the Greek Government 160/1991, based on EU regulations 86/609). Rats were kept in the Centre of the School of Veterinary Medicine (EL54 BIO42), Aristotle University of Thessaloniki, which is registered by the official state veterinary authorities (presidential degree 56/2013, in harmony with the European Directive 2010/63/EEC). The experimental protocols were approved by the Animal Ethics Committee of the Prefecture of Central Macedonia. For the study of the analgesic activity of the tested compounds, pain is provoked with acetic acid. Animals were divided in three five-membered groups, according to our reported method. After treatment with the tested compounds (0.0057 mmol/kg body weight; intraperitoneally) in the first group, the second group was used as a positive control (aspirin; 0.0057 mmol/kg body weight i.p.) and the third group served as the control in which saline was administered (negative control). After 30 min, 0.6% acetic acid (1 mL/kg body weight) was injected i.p. The number of writhes was recorded for each animal every 5 min during a subsequent 30 min period (Table 6).

[4] = system: adjuvant-induced disease (AID); assay: Adjuvant-induced disease (AID); assay type: in vivo, Fisher 344 rats; settings: AID rats
Procedure: Adjuvant-induced disease (AID) is a good experimental model for rheumatoid arthritis, and is often used in testing agents for anti-inflammatory activity. The compound was administered intraperitoneally on the 1st day, i.e., the day of the administration of Freund’s adjuvant (FA), and once every other day for the following 24 days. Adjuvant arthritis was developed about 14 days post-FA administration. […] The effect of the tested compound on inflammation is shown in Table 7 and the time course of adjuvant arthritis development expressed as arthritic score is shown in Figure 2. In the same experimental model, Indomethacin (IMA) was used as a reference compound.
as §1
Rats were divided into four groups (five-membered groups of animals were used): groups one, two and three were injected intradermally with 0.1 mL Freund’s adjuvant (FA) into the base of the tails of the animals; group three was the FA control rats; group four was injected with saline, used as an absolute control. Compound 2d (group 1) and indomethacin (group 2) were injected i.p. once every other day for the following 24 days in a dose of 0.00057 mmol/mL/kg body weight (Table 7). Adjuvant arthritis was developed circa 14 days post-FA administration. Arthritic score was measured every 2 days from the commencement (14th day) day. Arthritic score was assessed on the 24th day. For quantification of arthritis (arthritic score); a single point was assigned for each wrist or ankle area and an additional point was given for each involved phalangeal joint, up to a maximum of five points per extremity.
On the 24th day and at least 12 h after the last injection, animals were administered zoxazolamine i.p. […], as an aqueous suspension with a few drops of Tween 80, and the duration of the paralysis were assessed (Table 7) (Figure 2). The experiment was conducted in duplicate.

[5] = 0.00057 mmol/mL/kg i.p. every other day for 24 days

Molecule | AAPH% 100 µM (anti-lipid peroxidation) [1] | CPE % (reduction in the rat paw edema induced by carrageenin) [2] | anti-inflammatory activity in carrageenin-induced rat paw edema (in words) [2] | Writhing Inhibition (%) [3] | Percent change in body weight (g ± SD) [4, 5] | Percent change in liver weight (g ± SD) [4, 5] | Zoxazolamine paralysis (minutes ± SD) ([4]; 24th day, zoxazolamine i.p.) | arthritis development / arthritic score ([4]; i.p. once every other day for 24 days, versus AID rat controls)
1-(5-(4-((4-bromobenzyl)oxy)phenyl)-3-(thiophen-2-yl)-1H-pyrazol-1-yl)ethan-1-one [Compound 2c] | 100% | 38.0 * % | medium activity | – | – | – | – | –
5-(4-((4-bromobenzyl)oxy)phenyl)-3-(4-chlorophenyl)-4,5-dihydro-1H-pyrazole [Compound 2e] | 98% | 56.0 ** % | highest anti-inflammatory activity | 66.1 * % | – | – | – | –
c1ccc(C2=NNC(c3cccc4ccccc34)C2)cc1 (stereo not drawn) [Compound 2a, 5-(naphthalen-1-yl)-3-phenyl-4,5-dihydro-1H-pyrazole] | 89% | no | inactive | – | – | – | – | –
Clc1ccc(C2=NNC(c3ccc4[nH]ccc4c3)C2)cc1 (stereo not drawn) [Compound 2b, 5-(3-(4-chlorophenyl)-4,5-dihydro-1H-pyrazol-5-yl)-1H-indole] | 78% | 27.0 * % | medium activity | – | – | – | – | –
Brc1ccc(COc2ccc(C3CC(c4ccccc4)=NN3)cc2)cc1 (stereo not drawn) [Compound 2d, 5-(4-((4-bromobenzyl)oxy)phenyl)-3-phenyl-4,5-dihydro-1H-pyrazole] | 96% | 63.0 ** % | highest anti-inflammatory activity | 54.2 * % | 6 ± 0.3 g | 7 ± 0.6 g | 227 ± 17 min | either did not develop or developed very mild arthritis; also recorded: significantly reduced
CC(=O)n1nc(-c2ccccc2)cc1-c1ccc2[nH]ccc2c1 [Compound 2f, 1-(5-(1H-indol-5-yl)-3-phenyl-1H-pyrazol-1-yl)ethan-1-one] | 95% | 30.0 * % | medium activity | – | – | – | – | –
CC(=O)n1nc(-c2ccc(Cl)cc2)cc1-c1cccc2ccccc12 [Compound 2g, 1-(3-(4-chlorophenyl)-5-(naphthalen-1-yl)-1H-pyrazol-1-yl)ethan-1-one] | 100% | 33.0 * % | medium activity | – | – | – | – | –
CC(=O)n1nc(-c2ccccc2)cc1-c1cccc(Oc2ccccc2)c1 [Compound 2h, 1-(5-(3-phenoxyphenyl)-3-phenyl-1H-pyrazol-1-yl)ethan-1-one] | 97% | 16.0 * % | low activity | – | – | – | – | –
